Our source for the mass density and activity coefficient values is the NIST ThermoML archive (doi:10.1016/j.jct.2014.12.027).

The conditions of series [1]: 101.33 kPa, Liquid, Vibrating tube method.
Series [2] in a line: activity coefficient (dimensionless); of the first substance listed, at infinite dilution; xn = mol fraction of the nth substance listed. The settings on record: 101 kPa, Liquid, Chromatography, x1 = 0.

Numbers after ± are expanded uncertainties.

As for `CCCC[n+]1ccc(C)cc1.N#CC(=C=[N-])C#N` [1-butyl-4-methylpyridinium tricyanomethanide], the mass density (usually the mass of a sample divided by its volume) in series [1] (293.15 K) was determined as 1037.3 ± 0.9 kg/m3; in series [1] (303.15 K) it was 1031.7 ± 0.9 kg/m3; in series [1] (313.15 K), 1026.2 ± 0.9 kg/m3; in series [1] (323.15 K), 1020.7 ± 0.9 kg/m3; in series [1] (333.15 K), 1015.1 ± 0.9 kg/m3; in series [1] (343.15 K) it was 1009.6 ± 0.9 kg/m3.
For `CCCO` [propan-1-ol] + CCCC[n+]1ccc(C)cc1.N#CC(=C=[N-])C#N, the activity coefficient in series [2] (318.15 K) was determined as 1.06 ± 0.07; in series [2] (328.15 K), 1.01 ± 0.06; in series [2] (338.15 K), 0.965 ± 0.061; in series [2] (348.15 K), 0.936 ± 0.059; in series [2] (358.15 K) it was 0.906 ± 0.057; in series [2] (368.15 K), 0.872 ± 0.056.
As for `CC(C)O` [propan-2-ol] + CCCC[n+]1ccc(C)cc1.N#CC(=C=[N-])C#N, the activity coefficient in series [2] (318.15 K) came out at 1.15 ± 0.07; in series [2] (328.15 K), 1.09 ± 0.07; in series [2] (338.15 K), 1.04 ± 0.07; in series [2] (348.15 K), 1 ± 0.06; in series [2] (358.15 K) it was 0.961 ± 0.06; in series [2] (368.15 K), 0.928 ± 0.059.
`c1ccncc1` [pyridine] + CCCC[n+]1ccc(C)cc1.N#CC(=C=[N-])C#N: the activity coefficient in series [2] (328.15 K) is 0.498 ± 0.038; in series [2] (338.15 K), 0.51 ± 0.038; in series [2] (348.15 K), 0.528 ± 0.039; in series [2] (358.15 K), 0.542 ± 0.04; in series [2] (368.15 K) it was 0.557 ± 0.04.
`C1CCOC1` [tetrahydrofuran] + CCCC[n+]1ccc(C)cc1.N#CC(=C=[N-])C#N: the activity coefficient in series [2] (318.15 K) turned out to be 0.779 ± 0.051; in series [2] (328.15 K), 0.807 ± 0.052; in series [2] (338.15 K), 0.827 ± 0.053; in series [2] (348.15 K), 0.856 ± 0.055; in series [2] (358.15 K), 0.872 ± 0.056; in series [2] (368.15 K), 0.907 ± 0.058.
For `c1ccsc1` [thiophene] + CCCC[n+]1ccc(C)cc1.N#CC(=C=[N-])C#N, the activity coefficient is 0.636 ± 0.044 in series [2] (318.15 K); 0.658 ± 0.045 in series [2] (328.15 K); 0.678 ± 0.046 in series [2] (338.15 K); 0.704 ± 0.047 in series [2] (348.15 K); 0.733 ± 0.049 in series [2] (358.15 K); 0.748 ± 0.049 in series [2] (368.15 K).
On to `Cc1ccccc1` [toluene] + CCCC[n+]1ccc(C)cc1.N#CC(=C=[N-])C#N, for which the activity coefficient in series [2] (318.15 K) is 1.19 ± 0.08; in series [2] (328.15 K), 1.23 ± 0.08; in series [2] (338.15 K), 1.27 ± 0.08; in series [2] (348.15 K), 1.32 ± 0.09; in series [2] (358.15 K), 1.36 ± 0.09; in series [2] (368.15 K), 1.4 ± 0.09.
In the case of `O` [water] + CCCC[n+]1ccc(C)cc1.N#CC(=C=[N-])C#N, the activity coefficient in series [2] (318.15 K) was found to be 0.971 ± 0.061; in series [2] (328.15 K), 0.926 ± 0.059; in series [2] (338.15 K), 0.887 ± 0.056; in series [2] (348.15 K), 0.859 ± 0.055; in series [2] (358.15 K), 0.826 ± 0.053; in series [2] (368.15 K), 0.796 ± 0.052.
